Patent US20090054421A1, “Pyrimidothiophene Compounds Having HSP90 Inhibitory Activity” (Vernalis R & D Limited, priority 2005, published 2009)

Target: T1, human full-length HSP90 (Homo sapiens, UniProt P08238)
T1 construct: E. coli expressed human full-length HSP90 protein, purified >95%; made in house; host or cells: E. coli
Assay: Fluorescence polarization assay (competitive displacement of fluorescein-labelled probe from HSP90)
Format: binding
Conditions: activity range A or B
From the text: Fluorescence Polarization Assay
Fluorescence polarization {also known as fluorescence anisotropy} measures the rotation of a fluorescing species in solution, where the larger molecule the more polarized the fluorescence emission. When the fluorophore is excited with polarized light, the emitted light is also polarized. The molecular size is proportional to the polarization of the fluorescence emission.
The fluoroscein-labelled probe—
binds to HSP90 {full-length human, full-length yeast or N-terminal domain HSP90} and the anisotropy {rotation of the probe:protein complex} is measured.
Test compound is added to the assay plate, left to equilibrate and the anisotropy measured again. Any change in anisotropy is due to competitive binding of compound to HSP90, thereby releasing probe.
Chemicals are of the highest purity commercially available and all aqueous solutions are made up in AR water. • 1) Costar 96-well black assay plate #3915 • 2) Assay buffer of (a) 100 mM Tris pH7.4; (b) 20 mM KCl; (c) 6 mM MgCl2. Stored at room temperature. • 3) BSA (bovine serum albumen) 10 mg/ml (New England Biolabs # B9001S) • 4) 20 mM probe in 100% DMSO stock concentration. Stored in the dark at RT. Working concentration is 200 nM diluted in AR water and stored at 4° C., Final concentration in assay 80 nM. • 5) E. coli expressed human full-length HSP90 protein, purified >95% (see, e.g., Panaretou et al., 1998) and stored in 50 μL aliquots at −80° C.
• 1) Add 100 μl 1× buffer to wells 11A and 12A (=FP BLNK) • 2) Prepare assay mix—all reagents are kept on ice with a lid on the bucket as the probe is light-sensitive.
• 3) Aliquot 100 μl assay mix to all other wells • 4) Seal plate and leave in dark at room temp for 20 minutes to equilibrate Compound Dilution Plate—1×3 dilution series • 1) In a clear 96-well v-bottom plate—{# VWR 007/008/257} add 10 μl 100% DMSO to wells B1 to H11 • 2) To wells A1 to A11 add 17.5 μl 100% DMSO • 3) Add 2.5 μl cpd to A1. This gives 2.5 mM {50×} stock cpd—assuming cpds 20 mM. • 4) Repeat for wells A2 to A10. Control in columns 11 and 12. • 5) Transfer 5 μl from row A to row B—not column 12. Mix well. • 6) Transfer 5 μl from row B to row C. […] In column 11 {provides standard curve} only add compound B11-H11. Add 2 μl of 100 mM standard cpd to wells B12-H12 {is positive control} • 13) The Z′ factor is calculated from zero controls and positive wells. It typically gives a value of 0.7-0.9.
The compounds tested in the above assay were assigned to one of two activity ranges, namely A=<10 μM; B=>10 μM, and those assignments are reported above.

T1 sequence (P08238 whole entry): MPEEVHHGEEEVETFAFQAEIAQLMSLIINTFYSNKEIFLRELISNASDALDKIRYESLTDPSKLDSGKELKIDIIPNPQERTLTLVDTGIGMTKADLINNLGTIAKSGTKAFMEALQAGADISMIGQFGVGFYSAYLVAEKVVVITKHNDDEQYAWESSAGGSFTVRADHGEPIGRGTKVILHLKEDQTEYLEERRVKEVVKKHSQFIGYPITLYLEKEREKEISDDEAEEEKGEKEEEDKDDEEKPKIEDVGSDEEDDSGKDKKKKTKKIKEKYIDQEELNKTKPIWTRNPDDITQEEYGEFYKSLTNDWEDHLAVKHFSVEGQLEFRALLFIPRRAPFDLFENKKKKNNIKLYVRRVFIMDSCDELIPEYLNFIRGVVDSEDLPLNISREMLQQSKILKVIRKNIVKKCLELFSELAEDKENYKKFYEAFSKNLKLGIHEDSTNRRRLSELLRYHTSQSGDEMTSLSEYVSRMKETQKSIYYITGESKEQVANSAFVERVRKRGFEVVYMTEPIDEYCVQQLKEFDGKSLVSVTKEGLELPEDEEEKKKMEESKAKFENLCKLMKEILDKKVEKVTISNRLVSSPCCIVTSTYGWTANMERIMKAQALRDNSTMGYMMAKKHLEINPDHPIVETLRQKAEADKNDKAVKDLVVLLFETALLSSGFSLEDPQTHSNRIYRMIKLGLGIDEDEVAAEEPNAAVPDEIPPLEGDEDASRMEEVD

Compound | IC50
CCNC(=O)c1cc2c(C(=NOCCN3CCCC3=O)c3cccs3)nc(N)nc2s1 [Example 40] | < 10 µM
CCNC(=O)c1cc2c(C(=NO)c3cccc(Cl)c3)nc(N)nc2s1 [Example 13] | < 10 µM
CCNC(=O)c1cc2c(C(=NOCC(=O)N3CCCCC3)c3ccc4c(c3)OCO4)nc(N)nc2s1 [Example 35] | < 10 µM
CN(C)CCNC(=O)c1cc2c(C(=NOCCN3CCCC3)c3ccc4c(c3)OCO4)nc(N)nc2s1 [Example 63] | > 10 µM
CC(C)(C)NC(=O)c1cc2c(C(=NOCCN3CCCC3=O)c3ccc4c(c3)OCO4)nc(N)nc2s1 [Example 58] | < 10 µM
CCN(CC)CCON=C(c1ccc2c(c1)OCO2)c1nc(N)nc2sc(C(=O)NC(C)C)cc12 [Example 44] | < 10 µM
CCNC(=O)c1cc2c(C(=NO)c3ccccc3Cl)nc(N)nc2s1 [Example 11] | > 10 µM
CCNC(=O)c1cc2c(C(=NOCCN3CCCC3)c3cccs3)nc(N)nc2s1 [Example 39] | > 10 µM
CCNC(=O)c1cc2c(C(=NO)c3cccnc3)nc(N)nc2s1 [Example 7] | > 10 µM
COCCNC(=O)c1cc2c(C(=NO)c3ccc4c(c3)OCO4)nc(N)nc2s1 [Example 22] | < 10 µM
CCN(CC)CCON=C(c1ccc2c(c1)OCO2)c1nc(N)nc2sc(C(=O)NCCOC)cc12 [Example 52] | < 10 µM
CCNC(=O)c1cc2c(C(=NO)c3ccc(-n4cccn4)cc3)nc(N)nc2s1 [Example 81] | < 10 µM
CCNC(=O)c1cc2c(C(=NO)c3ccc(OC)c(OC)c3)nc(N)nc2s1 [Example 15] | < 10 µM
CCNC(=O)c1cc2c(C(=NO)c3ccc(N4CCCC4=O)cc3)nc(N)nc2s1 [Example 78] | < 10 µM
Nc1nc(C(=NOCCN2CCCC2)c2ccc3c(c2)OCO3)c2cc(C(=O)NCC(F)(F)F)sc2n1 [Example 75] | < 10 µM
CCNC(=O)c1cc2c(C(=NOCCN3CCCC3)c3ccncc3)nc(N)nc2s1 [Example 48] | > 10 µM
CCN(CC)CCON=C(c1ccc2c(c1)OCO2)c1nc(N)nc2sc(C(=O)NCC(F)(F)F)cc12 [Example 74] | < 10 µM
CCNC(=O)c1cc2c(C(=NOCC(=O)O)c3ccc4c(c3)OCO4)nc(N)nc2s1 [Example 34] | < 10 µM
CCNC(=O)c1cc2c(C(=NO)c3cc4c(cc3Cl)OCO4)nc(N)nc2s1 [Example 6] | < 10 µM
CCNC(=O)c1cc2c(C(=NO)c3ccc4ccccc4c3)nc(N)nc2s1 [Example 14] | < 10 µM
CCNC(=O)c1cc2c(C(=NOCCN(CC)CC)c3cc4c(cc3Cl)OCO4)nc(N)nc2s1 (mixture of isomers) [Example 30] | < 10 µM
CCNC(=O)c1cc2c(C(=NOCCN3CCCC3)c3ccco3)nc(N)nc2s1 [Example 43] | < 10 µM
CCNC(=O)c1cc2c(C(=NO)c3ccoc3)nc(N)nc2s1 [Example 19] | < 10 µM
CCN(CC)CCON=C(c1ccc2c(c1)OCO2)c1nc(N)nc2sc(C(=O)NC(C)(C)C)cc12 [Example 55] | < 10 µM
CCNC(=O)c1cc2c(C(=NO)c3ccc(OC)cc3)nc(N)nc2s1 [Example 12] | < 10 µM
